Marks after values point to notes of the source that are not given here. Values belong to the compound of their own block, whether it stands above or below them. Where a SMILES comes first, the peptide text is derived from it.
Legend:
IL-1R/IL-1RacP receptor [1] = test: IL-1-induced PGE2 synthesis in piglet brain microvascular endothelial cells; type: cell-based, porcine; conditions: for potency and efficacy, IL-1-induced PGE2 synthesis: truncated derivatives, FIG. 18 (WI-38 and endothelial cells)
Procedure: (§1) It is well known in the art that IL-1 induces the synthesis of prostaglandin E2 (PGE2) in endothelial cells and/or chondrocytes in vitro. Therefore, human chondrocytes and piglet brain microvascular endothelial cells were pre-incubated 45-60 minutes at 37° C. with peptide API-101 (^10−6M) and human IL-1 (10 ng/ml) was added in the growing medium. After 24 hours of incubation, growth medium was collected and evaporated. PGE2 measurement was determined by RIA assay with a commercial kit (Cederlane).

[2] = TNBS-induced inflammatory bowel disease rat model, Example 6 (48 h; MPO, macroscopic, histologic); type: in vivo; set-up: macroscopic evaluation (median score): scale not given here
Procedure: Colon inflammation was induced by intra-rectal/colon administration of the hapten trinitrobenzene sulphonic acid (TNBS) on male Sprague-Dawley rats (175-200 g) (Bouma, Nature Rev, 2003; Morris, Gastroenterology, 1989). Animals were anesthetized with isoflurane and TNBS dissolved in 50% ethanol (vol/vol). 120 mg/ml (TNBS) was administered into the colon (total volume of 0.25 ml per rat) using a polyethylene tube (PE50). The cannula was inserted at 8 cm from the anus and kept in place for at least 15 min after TNBS administration in order to prevent expulsion of the solution. […] A third group (control) was not injected with TNBS. Six days after administration of TNBS, rats were killed by CO2 inhalation. Day 6 was chosen as an endpoint because by day 7 spontaneous tissue regeneration begins and this can mask the therapeutic effect of the tested peptide or peptide derivative. Colon was removed and examined macroscopically (adhesions, ulcerations, discoloration and bleeding) and histologically (neutrophil infiltration, epithelial injury, crypt distortion and ulcerations) (Anthony et al. 1995; Padol et al. 2000; Dieleman, L A, et al. 1997; Torres M I et al. 1999). Two animals per group were studied.
Colon inflammation was induced by intra-rectal/colon administration of the hapten trinitrobenzene sulphonic acid (TNBS) as described in Example 4. Two hours prior to TNBS administration, peptides, peptidomimetics or 0.9% saline were administered intravenously (iv) via the caudal vein (various concentrations of mg/kg/d) (total volume of 0.3 ml). […] A third group (control) was not injected with TNBS. […] Also, these IL-1R antagonists were given twice a day (BID); Remicade® (anti-TNFα) (10 mg/kg) and dexamethasone (0.75 mg/kg) were administered intraperitoneally but only once a day (qd). The intrarectal administration (ir) of 101.10, 101.113 (1 and 2.5 mg/kg), and 5-ASA (50 mg/kg) was done one hour after TNBS administration, and twice a day, except for 5-ASA which is once a day. Finally, 101.10 (1-5 mg/kg) was also administered orally by gavage (po), twice a day. Forty-eight hours after administration of TNBS, rats were killed by CO2 inhalation. Colon was removed and assessed macroscopically (adhesions, ulcerations, discoloration and bleeding) and histologically (neutrophil infiltration, epithelial injury, crypt distortion and ulcerations). One to seven animals per group were studied, according to treatments. Myeloperoxidase (MPO) activity was measured on tissue lysates.

IL-1R = biological target: T1, IL-1R (Homo sapiens, UniProt P14778); test: Characterization of peptidomimetics (FIGS. 26, 29, 30; assay not stated); conditions: FIG. 26
T1 sequence (P14778 18-569): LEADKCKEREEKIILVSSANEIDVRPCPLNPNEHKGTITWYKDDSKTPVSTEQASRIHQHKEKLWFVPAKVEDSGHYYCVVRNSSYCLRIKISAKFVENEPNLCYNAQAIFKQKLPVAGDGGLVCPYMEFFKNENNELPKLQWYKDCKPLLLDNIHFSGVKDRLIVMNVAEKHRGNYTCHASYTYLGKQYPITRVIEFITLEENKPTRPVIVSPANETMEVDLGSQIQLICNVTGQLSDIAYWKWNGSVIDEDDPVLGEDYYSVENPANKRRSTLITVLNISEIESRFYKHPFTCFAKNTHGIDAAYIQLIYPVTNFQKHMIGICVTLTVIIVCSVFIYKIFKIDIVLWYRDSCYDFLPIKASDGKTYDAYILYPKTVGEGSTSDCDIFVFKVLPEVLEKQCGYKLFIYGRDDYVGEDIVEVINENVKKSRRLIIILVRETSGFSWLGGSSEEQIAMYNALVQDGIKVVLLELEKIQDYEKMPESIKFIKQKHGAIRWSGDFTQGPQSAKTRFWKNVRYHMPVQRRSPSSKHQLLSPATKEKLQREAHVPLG

IL-1R/IL-1RacP receptor [3] = biological target: T2, IL-1R/IL-1RacP receptor (Sus scrofa, UniProt A0A5G2QSI4); test: IL-1-induced PGE2 synthesis in piglet brain microvascular endothelial cells; type: cell-based, porcine; conditions: endothelial cells; for inhibition of IL-1-induced PGE2 synthesis, compared with parent API-101: alanine scan peptides 10^−6M
T2 construct: endogenous in cells; host or cells: piglet brain microvascular endothelial cells
T2 sequence (A0A5G2QSI4 21-572): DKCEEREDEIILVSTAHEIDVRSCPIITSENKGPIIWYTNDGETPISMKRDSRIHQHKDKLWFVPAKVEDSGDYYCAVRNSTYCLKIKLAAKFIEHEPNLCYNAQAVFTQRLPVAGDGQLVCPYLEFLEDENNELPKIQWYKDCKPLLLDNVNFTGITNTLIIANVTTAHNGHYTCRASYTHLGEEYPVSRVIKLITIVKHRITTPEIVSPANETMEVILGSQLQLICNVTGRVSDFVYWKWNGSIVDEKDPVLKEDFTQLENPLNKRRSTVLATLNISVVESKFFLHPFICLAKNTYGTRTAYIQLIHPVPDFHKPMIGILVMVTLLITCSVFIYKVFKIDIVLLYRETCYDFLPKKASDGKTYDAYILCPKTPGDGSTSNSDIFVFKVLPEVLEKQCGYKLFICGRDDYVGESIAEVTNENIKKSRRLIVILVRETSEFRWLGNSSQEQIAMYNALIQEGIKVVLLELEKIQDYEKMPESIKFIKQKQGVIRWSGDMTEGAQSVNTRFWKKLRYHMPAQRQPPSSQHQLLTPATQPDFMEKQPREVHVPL
Procedure: as §1

IL-1R/IL-1RacP receptor [4] = test: Ex vivo vasomotricity: reversal of IL-1β-induced vasodilation of piglet pial vessels; conditions: IL-1β 75 ng/ml
Procedure: Ex vivo vasomotor response on brain vessels was performed as described (Li et al., 1996; Hou et al., 2000; Hou et al., 2001; Hou et al., 2003). Brains were removed from Yorkshire piglets. Slices of cortex exposing the pial vessels were pinned to a wax base of a 20 ml bath containing Krebs buffer (pH 7.4) equilibrated with 95% O2, 5% CO2 and maintained at 37° C. Microvessels were visualized and recorded using a video camera mounted on a dissecting microscope. Vascular diameter was measured using a digital image analyzer. Vascular diameter was recorded before and after topical application of pre-constricting agent, U46619 (10^−7 M). After stabilization of preparation, the ligand (IL-1β, 75 ng/ml) was added until stable vasodilation was detected. Peptides were subsequently added at different concentrations from 10^−10 to 10^−5 M. Reversal of vasodilatation was visualized and measured as previously described (Hou, et al. 2000; Hou et al. 2001; Hou et al. 2003); triplicate measurements were conducted on 2 animals.

IL-1R/IL-1RacP receptor [5] = biological target: T3, IL-1R/IL-1RacP receptor (Homo sapiens, UniProt P14778); test: IL-1-induced PGE2 synthesis in human chondrocytes; type: cell-based; set-up: endogenous in cells; conditions: alanine scan peptides 10^−6M
T3 sequence (P14778 18-569): T1 sequence (P14778 18-569)
Procedure: as §1

IL-1R/IL-1RacP receptor [6] = biological target: T4, IL-1R/IL-1RacP receptor (Rattus norvegicus, UniProt Q02955); test: IL-1β-induced systemic hypotension in rats; type: in vivo; conditions: jugular injection
T4 construct: from tissue; host or cells: whole animal, Sprague-Dawley rat
T4 sequence (Q02955 20-576): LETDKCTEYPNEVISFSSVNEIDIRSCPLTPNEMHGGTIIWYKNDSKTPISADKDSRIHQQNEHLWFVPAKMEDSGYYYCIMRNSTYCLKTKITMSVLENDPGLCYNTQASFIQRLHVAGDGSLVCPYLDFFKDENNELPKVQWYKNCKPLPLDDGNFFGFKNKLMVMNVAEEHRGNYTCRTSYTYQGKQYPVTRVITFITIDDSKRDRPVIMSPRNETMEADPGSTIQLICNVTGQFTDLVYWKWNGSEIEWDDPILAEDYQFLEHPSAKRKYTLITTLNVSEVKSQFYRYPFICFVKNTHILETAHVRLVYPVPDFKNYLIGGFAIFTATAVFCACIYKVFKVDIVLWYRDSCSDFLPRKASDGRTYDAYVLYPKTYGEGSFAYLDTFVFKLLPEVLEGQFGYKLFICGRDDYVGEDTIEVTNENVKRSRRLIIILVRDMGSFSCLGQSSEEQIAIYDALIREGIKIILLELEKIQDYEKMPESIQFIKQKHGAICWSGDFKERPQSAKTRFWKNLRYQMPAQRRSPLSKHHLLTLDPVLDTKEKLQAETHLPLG
Procedure: The API-101 derivatives, API-101.10 (SEQ ID NO: 10) (and others) were tested to assess whether they could reverse the physiological actions of the natural ligand in vivo by injecting the derivative through the jugular or directly into the stomach (to verify the stability of the peptide through the digestive tract). Sprague-Dawley rats (300 g) were anesthetized with isoflurane (2.5-4%). The natural ligand (IL-1β) or vehicle (saline) was injected through the jugular vein (5 μg/kg). Blood was taken from the carotid artery for subsequent PGE2 measurements before and 10 min after each injection. Peptides were administered (dosage based on IC50 values and a volume of distribution equivalent to the extracellular space) either in the jugular vein or directly in the stomach (5 times dose used intravenously, (iv)). Arterial blood pressure and heart rate were continuously monitored (Gould) while temperature and blood gases (Radiometer) were measured for routine analysis as previously described (Li et al. 1997; Hardy et al. 1999; Najarian et al. 2000). Experiments were repeated 3 times.

[7] = Continuous infusion (ip), 0.5 mg/kg/d
[8] = Intermittent injection ip, 0.2-BID mg/kg/d

IC50 (IL-1R/IL-1RacP receptor [1]; FIG. 15, cell type not stated): 1.2 pM
Compound: CC(C)C[C@@H](NC(=O)[C@@H](CCC(=O)O)NC(=O)[C@H]1CCCN1C(=O)[C@H](NC(=O)[C@@H](Cc1ccc(O)cc1)NC(=O)[C@H](N)CCCNC(=N)N)[C@H](C)O)C(=O)N[C@H](C)C(N)=O [API-101.107, RYTPELA] (HELM PEPTIDE1{[dR].[dY].[dT].[dP].[dE].[dL].[dA].[am]}$$$$V2.0; C-terminus assumed)
MPO (% of TNBS + Saline) [2, 7]: 37 % of TNBS + Saline
histologic evaluation (median score) [2, 7]: 1.5
MPO (% of TNBS + Saline) [2, 8]: 112 % of TNBS + Saline
histologic evaluation (median score) [2, 8]: 2.5
macroscopic evaluation (median score) [2, 8]: 1.37^†
reduction in MPO activity, macroscopic and histologic score, compared with Kineret ([2]; intraperitoneal osmotic pumps (continuous infusion)): superior or equivalent in efficacy to Kineret

Compound: CC(C)C[C@@H](NC(=O)[C@@H](CCC(=O)O)NC(=O)[C@H]1CC[C@H]2CC[C@@H](NC(=O)[C@@H](Cc3ccc(O)cc3)NC(=O)[C@H](N)CCCNC(=N)N)C(=O)N21)C(=O)N[C@H](C)C(N)=O [API-101.110, RY(I^2aa)ELA]
IC50 (IL-1R): 10 pM
efficacy compared with API-101.107 (IL-1R/IL-1RacP receptor [3]): twice the efficacy
potency, fold higher than API-101.107 (IL-1R/IL-1RacP receptor [3]): 10 fold

reversal of IL-1β-induced vasodilation (IL-1R/IL-1RacP receptor [4]): reversed the vasodilation
vasodilation abolished (IL-1R/IL-1RacP receptor [4]): 70%
inhibition of IL-1-induced PGE2 synthesis, compared with parent API-101 (IL-1R/IL-1RacP receptor [3]): slightly improved efficacy
inhibition of IL-1-induced PGE2 synthesis, compared with parent API-101 (IL-1R/IL-1RacP receptor [5]): slightly improved efficacy
Compound: AARYTVELA [API-101.1]

reversal of IL-1β-induced vasodilation (IL-1R/IL-1RacP receptor [4]): reversed the vasodilation
inhibition of IL-1-induced PGE2 synthesis, compared with parent API-101 (IL-1R/IL-1RacP receptor [3]): lost almost all activity
inhibition of IL-1-induced PGE2 synthesis, compared with parent API-101 (IL-1R/IL-1RacP receptor [5]): lost almost all activity
Compound: APRYTVALA [API-101.6]

prevention of IL-1β-induced hypotension, in words (IL-1R/IL-1RacP receptor [6]): less effective
Compound: PRYTVELA [API-101.9]

Compound: TVELA [API-101.12]
potency and efficacy, IL-1-induced PGE2 synthesis (IL-1R/IL-1RacP receptor [1]): decrease in potency and efficacy

Compound: YTVELA [API-101.11]
potency and efficacy, IL-1-induced PGE2 synthesis (IL-1R/IL-1RacP receptor [1]): decrease in potency and efficacy

Source: patent publication US8618054B2, “Interleukin-1 receptor antagonists, compositions, and methods of treatment” (Valorisation-Rechereche Société en Commandite, priority 2004, dated 2013)
